Test results from patent publication US20120021988A1, “METHODS FOR TREATING IMMUNE THROMBOCYTOPENIA” (priority 2007, published 2012).
Several values for one entry are separate records, joined by “and”; a condition that tells them apart may be missing. Identical values can stand only once.

Assays:
human C1q = experiment: Reverse ELISA: inhibition of PAP immune complex binding to C1q coated plates
From the text: For this reason, a “reverse ELISA” technique has been used to assess binding of the Fc region to ligands that bind to immune complexed IgG Fc. In a reverse ELISA, the enzyme (e.g., HRP) is not covalently conjugated to the Fc portion of the secondary antibody. Rather, a preformed immune complex of peroxidase-rabbit (or mouse) anti-peroxidase IgG (“PAP” complex) is used. […] In the reverse ELISA system, an Fc CH2-CH3 cleft binding ligand (e.g., purified human C1q) was bound to microwell plates. In the absence of competitor, PAP complexes bound to the immobilized ligand and the reaction between HRP and its substrate produces a signal. This signal was reduced by polypeptides and compounds that inhibited PAP binding to the immobilized ligand.
PAP complexes were formed mixing 2 μl of rabbit anti-peroxidase (Sigma Chemicals, St. Louis, Mo.; Cat. No. P7899) with 50 μl of peroxidase (Sigma-Aldrich, Cat. No. P6782) in 1 ml distilled water. PAP (100 μl) were pre-incubated with 100 μl of peptide for one hour, 100 μl were pre-incubated with 100 μl of peptide or human C1q (Quidel Corp., San Diego, Calif.) for one hour. The C1q/PAP and peptide/PAP mixtures (100 μl) were incubated with C1q coated plates for 30 minutes. After washing, plates were incubated with ATBS (Quidel Corp.) for 15 minutes and read at 405 nm.

mice having induced ITP = experiment: In vivo treatment of ITP induced by rabbit anti-platelet antibody, platelet counting by flow cytometry; parameters: species or system CD-1 mice; conditions: for Platelet counts, individual mice: intraperitoneal, 24 hours, listed as AP; for Platelet counts, mean: 3 mice, ITP alone mean 170.7, Nil 1016
Method: Mice: CD-1 mice approximately 6-8 weeks of age were obtained from Charles River (Montreal). The animals were housed 3-5 per cage in filter-topped cages. The temperature and relative humidity were maintained at […] and 35-70%, respectively, and a 12 hour light/dark cycle was used. The mice were fed rodent chow and water ad libitum.
Anti-platelet antibodies to induce ITP: A rabbit anti-platelet antibody (Inter-Cell Technologies, Inc., Jupiter, Fla.; Cat. No. A31440) was used to induce ITP. Each mouse received 10 μl antibody-containing serum, diluted with 190 μl PBS for injection, such that the final injection volume was 200 μl for all groups injected with anti-platelet antibody.
On the day of use, one vial of rabbit anti-platelet antibody was removed from the freezer, placed in a 22° C. water bath, and shaken. The tube was checked every 30 seconds, and when it was completely thawed it was placed in a microcentrifuge and centrifuged at 10,000×g (11,000 rpm) for 10 minutes at 4° C. The supernatant fluid was transferred to a new tube and the pellet was discarded. The supernatant was placed on ice until used or diluted, as appropriate. Unused portions of the sera were discarded.
Therapeutic treatment of ITP: IVIg was used as a standard control treatment for the ITP induced by the rabbit anti-platelet antibody. The IVIg was Gamimmune® N, 10%. Treatment with IVIg consisted of an intraperitoneal injection of 50 mg (500 μl) IVIg, a dose that was equivalent to a dose of 2,000 mg/kg body weight.
Platelet enumeration: All mice were bled via the saphenous vein. 50 μL of blood were collected into 450 μL PBS/1% EDTA. The blood was further diluted in PBS/1% EDTA. Platelets were enumerated by flow cytometry with a Guava microcapillary cytometer (Guava EasyCyteMini, Guava Technologies, Inc., Hayward, Calif.), using forward scatter (FSC) versus side scatter (SSC) to gate platelets.
Peptides used to inhibit ITP: Peptides having the amino acid sequences set forth in SEQ ID NO:2 ([…]), SEQ ID NO:20 ([…]), and a control peptide in which Trp7, Val13 and Trp14 of SEQ ID NO:20 were replaced by alanines ([…]; SEQ ID NO:57) were tested for their ability to inhibit ITP. Alanine substation of Val13 and Trp14 causes a decrease in binding affinity (measured by ΔΔG, where G=Gibbs Energy) of greater than 1,000 fold.
Peptides were stored at −20° C. until the day of use. On the day of use, peptides were removed from the freezer, placed in a 22° C. water bath, shaken, and checked every 30 seconds for thawing. When thawed, the peptides were placed on ice until use. For samples that received a 10× dose of peptide, the following were sequentially added to a 1.5 ml polypropylene Eppendorf tube: 623 μl PBS (pH 7.22), 35 μL rabbit anti-plaletet IgG, and 42 μl peptide, with mixing after each addition. For samples having a 100× dose of peptide, the following were added sequentially to a 1.5 ml polypropylene Eppendorf tube: 245 μl PBS (pH 7.22), 35 μL rabbit anti-plaletet IgG, and 420 μl peptide, with mixing after each addition. The peptides were incubated for at least 30 minutes at 22° C. prior to injection into mice. (A 15 minute incubation in the laboratory, transport of the mixtures to the Vivarium, and injection took roughly an additional 30 minutes.)
The final volume of each peptide mixture was 700 μL, which was sufficient for injection of 3 mice (200 μl/mouse, plus 100 μl to cover dead volume). For the 10× dose/mouse of peptide, 12 μg of peptide (12 μl of 1 mg/ml solution) was mixed with 100 μg of the rabbit anti-platelet IgG (10 μl of 10 mg/ml solution). The volume of 700 μl was about 3.5× the volume injected per mouse (200 μl). To obtain the dose of peptide and rabbit IgG for the 700 μl final volume, dose of peptide or Rabbit IgG per mouse was multiplied by 3.5 (e.g., 12 μl peptide/mouse×3.5=42 μl, 10 μl Rabbit IgG/mouse×3.5=35 μl). PBS (623 μl, pH 7.22) was added to make up the final volume 700 μl. […]

FcγIIa (His 131 allele) = experiment: Repeated FcγR reverse ELISA with SEQ ID NO:20 (Table 3); type: binding; conditions: H131 allele
Method: (§1) Experiments with SEQ ID NO:20 were repeated. Costar microtiter plates were coated with 1:10 dilutions of highly purified FcγIIa (His 131 allele aka […]), FcγIIb and FcγIIIb and incubated for 24 hours. The plates were washed and then blocked with 10 mg/ml BSA blocking solution for 24 hours. PAP immune complexes were formed as described in Example 2. PAP (100 μl) were pre-incubated with 100 μl of peptide for one hour. PAP/peptide mixtures were added to the FcγR coated plates and incubated for one hour. After washing, plates were incubated with ABTS substrate for 15 minutes and read at 405 nm.

FCγIIb/c = experiment: as above; type: binding
Method: as §1

[1] = ITP + 10X molar amount of peptide
[2] = ITP + 100X molar amount of peptide

## Ala-Pro-Pro-Asp-Cys-Ala-Trp-His-Leu-Gly-Glu-Leu-Val-Trp-Cys-Thr (APPDCAWHLGELVWCT) [SEQ ID NO:20]
Human C1q; PAP pre-incubated with peptide or C1q one hour, C1q coated plates, lower OD = more inhibition, positive control 2.355
  OD 405 nm: 0.389
Human C1q; summary of Table 1
  Inhibition of C1q binding (ranking in words): greatest inhibition of C1q binding
Mice having induced ITP; [1]
  Platelet counts, individual mice: 2.03e+11 L⁻¹ and 2.61e+11 L⁻¹ and 1.97e+11 L⁻¹
  Platelet counts, mean: 2.203e+11 L⁻¹
Mice having induced ITP; [2]
  Platelet counts, individual mice: 7.59e+11 L⁻¹ and 6.42e+11 L⁻¹ and 4.33e+11 L⁻¹
  Platelet counts, mean: 6.113e+11 L⁻¹
Mice having induced ITP; first experiment, 100× molar
  Effect on induced ITP, 100× versus 10×: greater effect than 10× Peptide AP
Mice having induced ITP; first experiment, Table 4, 10× and 100× molar
  Effect on induced ITP: ameliorated induced ITP
Mice having induced ITP; second experiment, FIG. 1, 10× molar and 100× molar, 24 hours after treatment
  Amelioration of induced ITP/AITP compared with IVIg: ameliorated the induced ITP/AITP better than the currently accepted treatment for ITP (IVIg)
FcγIIa (His 131 allele); repeat experiment, positive control 3.509
  FCγIIa* (read at 405 nm): 0.209
FcγIIa (His 131 allele); versus positive control
  % inhibition of IC binding, FCγIIa*: 94%
FCγIIb/c; repeat experiment, positive control 2.218
  FCγIIb/c (read at 405 nm): 0.266
FCγIIb/c; versus positive control
  % inhibition of IC binding, FCγIIb/c: 88%
